Patent US5312928A, “Calcium channel antagonists and methodology for their identification” (priority 1991, dated 1994)
pIC50: −log10 of the molar value. Entries after “also recorded” stand apart in the source; their conditions may differ.

Tests used:
[1] = tested on: L-type calcium channels (GH4 C1 cells); experiment: Microscreen assay: K+-stimulated 45Ca uptake by GH4C1 clonal pituitary cells; format: cell-based, rat
Method: Frozen crude venom (40 μl) was thawed on ice and mixed with 210 μl of ice-cold 0.1% trifluoroacetic acid (TFA) in H2 O. The solution was centrifuged at room temperature for 5 min. at 13,000 rpm with an Eppendorf Centrifuge, and 240 μl of the supernatant was applied to a reversed-phase C18 HPLC column (100×250 mm, 5 μm bead size, 100 Å pore size, prepacked NGA column from The NEST Group). HPLC was performed using an acetonitrile gradient of 0 to 30% in 0.1% TFA in 105 min. at a flow rate of 4.0 ml/min. The elution was monitored by absorbance at 214 nm and 254 nm, and the fractions were collected manually according to the elution profile. Samples representing 5% of each fraction (corresponding to 2 μl crude venom per sample) were dried by Speed Vac (Savant), suspended in a buffer, and tested for their ability to block ^45 Ca^+ 2 influx into rat GH4C1 cells (see "Microscreen Assay for L-Type Calcium Channel Blockers" below).
Microscreen Assay for L-Type Calcium Channel Blockers
The rat GH4 C1 pituitary cells, a widely available cell line obtained from Dr. Armen Tashjian, Harvard Medical School, was used to measure effect of DOC preparations on calcium influx into cells.
Cell stocks were kept frozen in liquid nitrogen until needed. One ampule was thawed and then seeded onto a T-75 culture flask and grown to confluency. Thereafter, the cells were treated with a 1% trypsin solution in Hanks and replated onto T-25 culture flasks at different dilutions. Stocks were then kept growing and split as needed rather than refrozen. The medium used was Ham's F-10 supplied by Media-Tech containing 10% heat-inactivated fetal calf serum purchased from Hyclone. In general, the best response was obtained from 3-5 day post-confluent cells.
Cell suspension from one T-25 flask was prepared as follows for experiments. The flask was gently washed 2× with Hanks. 10 ml of warm 0.02% EDTA-Hanks was added to the flask and allowed to stand for approximately 30 seconds. The plate was sloshed, inverted and banged on a hard surface to dislodge the cells. 0.6 ml CMT-Hanks was immediately added and sloshed. The cells were then transferred to a 15 ml centrifuge tube and spun for 20-30 seconds at 50 g (700 RPM).
With a pipette, the supernatant was gently aspirated and resuspended by triturating the pellet in 0.4 ml HBBS. The cells were then transferred to a 4 ml flat bottom glass vial with a magnetic flea and stirred at the slowest speed.
Thereafter, low K^+ or high K^+ 4.2 μl ^45 Ca stock [eq. to 2 uCi/4.2 μl cells] was added to the tube and incubation was continued for 1 min. 790 μl HBBS was added to quench calcium uptake by the cells. The mixture was then pipetted up and down 2× before it was subjected to filtration in an Amicon filter manifold with a Whatman glass fiber filter. The filter was rinsed 5× with 5 ml HBBS buffer each. It is important that the buffer be squirted at the side of the chimney, straight down and not directly at the filter, since this may wash cells back up off the filter and onto the chimney. It is also important not to cause a whirlpool effect with the wash and create uneven rinsing of the filter.
A separate chimney for each well was used and each chimney was washed after use.
About 1 min. after the rinse, the chimney was removed to relieve the filter of suction to minimize loss of counts due to cell disruption. A set of four blanks (i.e., measurements using the same solutions but without cells) was run at the end of the assay to determine the background counts.

[2] = tested on: synaptosomal calcium channels; experiment: Microscreen assay: K+-stimulated 45Ca uptake by synaptosomes; format: biochemical, rat
Method: The screening method used to test calcium blocking activity in GH4 C1 cells of venom preparations, as described above, was modified as follows for determining the effect of DOC1 on synaptosomal calcium uptake.
After the buffers were made, the osmolarity of the quench buffer was adjusted by dilution with ddH2 O to approximately equal to the average of the osmolarities of the other 3 buffers. All the buffers were made up in ddH^2 O only.
For basal uptake: 5 μl NEN stock+995 μl low K+Ca buffer.
For depolarized (i.e., high K^+) uptake: 5 μl NEN+995 μl high K+Ca buffer.
The synaptosome preparation described below was an adoption of a published procedure. [Hajos F., Brain Res. 93:485-489 (1975)].
Basal buffer used was of the following composition: Basal buffer, pH 7.4, was of following composition: NaCl 147 mM, KCl 3 mM, HEPES 10 mM, Dextrose 10 mM, MgCl2 1.2 mM, and EGTA-Tris 1 mM. The high-K^+ buffer was the same as the basal buffer except that concentrations of NaCl and KCl were 95 mM and 55 mM, respectively.
Synaptosomes were prepared from CD male rats of 4 to 6 weeks (50-75 g). Rats were killed by decapitation with guillotine, and the skull bone was opened in the center with the pointed blade of dissection scissors. The bone was then peeled away with a bone cutter and the brain pried with a micro spatula. […]

[3] = tested on: L-type calcium channels (GH4 C1 cells); experiment: Whole-cell voltage-clamp electrophysiology, GH4 C1 cells; format: cell-based, rat
[4] = tested on: DHP-resistant R-channels (N1E-115 cells); format: cell-based, murine
[5] = tested on: T-type calcium channels (N1E-115 cells); format: cell-based, murine
[6] = tested on: Na current, N1E-115 cells; format: cell-based, murine
[7] = tested on: K currents, N1E-115 cells; format: cell-based, murine; conditions: @ 1 U/ml
[8] = tested on: L-channels? (cortical neurons); experiment: Block of K-stimulated 45Ca uptake, cortical neurons; format: cell-based
Excerpt: Summarized in the Table below are results of experiments designed to study the effect of DOC1 on calcium channels by calcium 45 uptake measurement and electrophysiological method, both of which are described above.

[9] = tested on: dihydropyridine binding sites on the L-type calcium channels; conditions: up to 0.6 units/ml; rat brain membranes
Excerpt: Other compounds which act through the same binding site as the dihydropyridines will inhibit this [^3 H]nimodipine binding.

L-type channels = conditions: characteristic of dihydropyridines, background; read-out: IC50 for L-channel block; cited from earlier work
stroke = conditions: cited from earlier work

With NCCCNCCCNCCCNCCCCCNC(=O)Cc1c[nH]c2cccc(O)c12 [DOC1] the “relative potency DOC1 vs DOC3 in blocking calcium uptake” value ([1]; FIG. 6, DOC1 compared with DOC3) was “several-fold more potent than DOC3”, the “activity in the 45Ca2+ influx assay / block of potassium-stimulated calcium uptake (in words)” value ([1]; GH4 C1 clonal pituitary cells) was “blocked potassium-stimulated calcium uptake; also recorded: active; also recorded: possess calcium blocking activity” and the “Block of DHP-sensitive L-type channels, GH4 C1 clonal pituitary cells, 45Ca uptake, IC50” value ([1]; consistent inhibitory effects, IC50 varied among GH4 C1 cultures) was 0.4-1.5 units/ml. For the same compound, the “inhibition of K+-stimulated calcium uptake by synaptosomes” value ([2]; concentrations up to 0.5 units/ml, not more than about 30%) was no more than 30%, the “block of synaptosomal calcium channels (in words)” value ([2]; in comparison with block of L-type channels in GH4 C1 cells) was “substantially less effective and potent” and the “block of current through calcium channels, GH4 C1 cells” value ([3]; 0.4-1.0 U/ml, depolarizations to between -10 and +20 mV) was “up to 80%”. For the same compound, the “reversibility of block of calcium channel current, GH4 C1 cells” value ([3]; FIG. 10) was “reversibly blocked; also recorded: capable of reversibly blocking electrical current”, the “Block of DHP-sensitive L-type channels, GH4 C1 clonal pituitary cells, electrophysiol, IC50” value ([3]; puff application) was 1.5 units/ml and the “Block of DHP-resistant R-channels, N1E-115 cells (electrophys), IC50” value [4] was 0.4 units/ml. The “concentration yielding half-maximal inhibition of high-threshold current remaining after nimodipine” value ([4]; 10 μM nimodipine, maximum block 45%, FIG. 12) was 0.37 U/ml, the “inhibition of high-threshold current in continuous presence of nimodipine (in words)” value ([4]; 1.0 U/ml DOC1, 10 μM nimodipine, FIG. 11A, 11B) was “inhibition of the high-threshold current; also recorded: blocks high-threshold current” and the “reversibility and dose-dependence of the actions” value ([4]; upon washout) was “reversible upon washout and were dose-dependent”. For the same compound, the “effect on T-type current (in words)” value ([5]; evoked by weak depolarizations from negative holding potentials, FIG. 11C) was “did not substantially affect the T-type current; also recorded: no block of putative T-type channels was observed; also recorded: little effect on T-type current”, the “Block of low threshold, inactivating (T?) channels, N1E-115 cells (electrophysiol), IC50” value ([5]; words in the IC50 column) was “none” and the “specificity for Ca channels over Na or K channels (in words)” value ([6]; Na or K channels, N1E-115 cells) was “striking specificity”. The “selectivity for Ca versus Na currents” value ([6]; on the order of) was “two”, the “Block of Na current, N1E-115 cells, IC50” value ([6]; words in the IC50 column) was “not signif” and the “Block of K currents, N1E-115 cells” value [7] was 12%. The “Block of K-stimulated 45Ca uptake (L-channels?), cortical neurons, IC50” value ([8]; IC50 varied among sensitive cultures) was 0.1-0.4 units/ml, the “sensitivity of cortical neuron cultures (in words)” value ([8]; some cultures of cortical neurons) was “insensitive” and the “inhibition of [3H]nimodipine binding (in words)” value [9] was “no significant inhibition; also recorded: no inhibition of nimodipine binding”.

For COC(=O)C1=C(C)NC(C)=C(C(=O)OC)C1c1ccccc1[N+](=O)[O-] [nifedipine], the pIC50 (L-type channels) is listed as greater than 6.00.

For COCCOC(=O)C1=C(C)NC(C)=C(C(=O)OC(C)C)C1c1cccc([N+](=O)[O-])c1 (stereo not shown) [nimodipine], the pIC50 (L-type channels) is listed as greater than 6.00, the cardiovascular side effects (stroke; background statement) is listed as “significant cardiovascular side effects” and the “improvement in the outcome of stroke in clinical trials” value (stroke; clinical trials, Gelmers et al. 1988) is listed as “Modest improvement in the outcome of stroke”.
